Test results taken from patent US20050256131A1, “Pharmaceutical active substance combination and the use thereof” (priority 2002, published 2005).
“Also recorded” adds a separate entry of the source.

Key:
Parkinson's disease = assay: clinical studies / series of tests on parkinsonian patients; format: in vivo, human; settings: for influence of additional intake on the effect of nefazodone or trazodone: taken in addition to nefazodone or trazodone; for antidepressant effect in parkinsonian patients: especially those treated in parallel with dopamine-containing medicaments; for necessary dose of dopamine to be taken: parkinsonian patients taking dopamine as supplement; for depot effect / release of the additionally taken dopamine in the patient's body: patients taking dopamine at the same time
Procedure: The tablets normally comprise the active substance in an amount of 100 mg or 200 mg. […] For example, if a total dose of 500 mg a day is intended, it is possible to take 200 mg in the morning, 200 mg at midday and 100 mg in the evening.
The medicament with the active substance trazodone was administered to the patients in the evening. […] However, to date, for the aforementioned reasons, the patients have been given the dopamine to be administered in the evening in conjunction with a depot composition.

[1] = cited from earlier work; for side effects affecting the nervous system / psychomotor performance: manufacturer's information for use or statements in the literature

Row | SMILES | influence of additional intake on the effect of nefazodone or trazodone (Parkinson's disease; parkinsonian patients) | side effects affecting the nervous system / psychomotor performance [1] | therapeutic effect in the treatment of the symptoms of Parkinson's disease (Parkinson's disease; parkinsonian patients) | antidepressant effect in parkinsonian patients (Parkinson's disease) | necessary dose of dopamine to be taken (Parkinson's disease) | depot effect / release of the additionally taken dopamine in the patient's body (Parkinson's disease) | other results
1 | CC(=O)Oc1ccccc1C(=O)O [acetylsalicylic acid] | can also assist the mentioned positive effects of nefazodone |  |  |  |  |  | 
2 | Cn1c(=O)c2c(ncn2C)n(C)c1=O [caffeine] | assists the mentioned positive effect of nefazodone |  |  |  |  |  | 
3 | O=C(O)COCCN1CCN(C(c2ccccc2)c2ccc(Cl)cc2)CC1 (centres unmarked) [cetirizine] | enhances the effect of the nefazodone or trazodone | reduction in psychomotor performance | particularly good effect |  |  |  | central sedative effect ([1]; compared with other antihistamines, statements in the literature): only a slight central sedative effect
4 | CCc1nn(CCCN2CCN(c3cccc(Cl)c3)CC2)c(=O)n1CCOc1ccccc1 [nefazodone, 2-[3-[4-(3-chlorophenyl)-1-piperazinyl]propyl]-5-ethyl-4-(2-phenoxyethyl)-2H-1,2,4-triazol-3(4H)-one] |  | impairments of the coordination of movements (ataxia) and slowing of movements | exceptionally good therapeutic effect | particularly evident | reduction in the necessary dose of dopamine | released more slowly | tolerability (Parkinson's disease; human, in vivo): generally well tolerated; daily dopamine dose as fraction of dose before treatment (Parkinson's disease; one patient with disease in advanced stage): about one third; dopamine dose necessary on additional intake, relative to dose previously necessary on treatment with dopamine alone (Parkinson's disease; parkinsonian patients regularly taking L-dopamine, simultaneous intake of nefazodone): one half or even one third; side effect of dopamine: uncontrolled motor activity in the patient (Parkinson's disease; patients on Parkinson's medicaments comprising dopamine): positively influenced
5 | O=c1n(CCCN2CCN(c3cccc(Cl)c3)CC2)nc2ccccn12 [trazodone, 2-[3-[4-(3-chlorophenyl)-1-piperazinyl]propyl]-1,2,4-triazolo[4,3-a]pyridin-3(2H)-one] |  |  | exceptionally good therapeutic effect | particularly evident | reduction in the necessary dose of dopamine | causes a depot effect | tiredness / sleep-promoting effect after intake (Parkinson's disease; parkinsonian patients): causes a certain tiredness; also recorded: sleep-promoting effect
